What was measured:
Assay type in all cases: cell-based, Murine
MSCs [1] = assay: Cytochalasin D treatment: endogenous YAP localization and nuclear deformation in MSCs on fibronectin-coated glass coverslips; conditions: versus wildtype MSCs
Experimental: For YAP localization measurements MSCs were imaged in two channels one for iRFP YAP transfected or Alexa 647 conjugated secondary antibody-stained cells (Ex 647 nm laser) and other for Hoechst-stained nuclei (Ex 405 nm laser). The principal metric for YAP quantification was the ratio of fluorescence of iRFP YAP in the nucleus to iRFP YAP in the cytoplasm and is referred to as the YAP Ratio. Image segmentation was performed using a custom MATLAB code, that segments the nucleus from Hoechst and cytoplasm from YAP and measures the ratio of total iRFP YAP fluorescence inside the nucleus to total iRFP YAP fluorescence in the cytoplasm.
(§1) To observe endogenous YAP localization, the MSCs were fixed with 4% paraformaldehyde for 15 min in room temperature and washed 3 times with PBS. The cells were permeabilized with 0.1% Triton X-100 diluted in PBS for 10 minutes. To avoid any nonspecific binding, cells were incubated with 1% bovine serum albumin (BSA) in PBS for 30 minutes at room temperature. To visualize YAP, cells were first incubated with 10 μg/ml Anti-YAP1 mouse monoclonal antibody (ab56701, Abcam™) diluted in 1% BSA in PBS overnight, followed by PBS wash and 1 hour incubation with 10 μg/ml Donkey Anti-Mouse IgG H&L (Alexa Fluor™ 647) secondary antibody (ab150107, Abcam™) diluted in 1% BSA in PBS. For nuclear characterization, nuclei were stained with 10 μg/ml Bisbenzimide Hoechst 33342 trihydrochloride (Sigma™) in PBS for 20 minutes, cells were washed with PBS.
To study the role of nuclear deformation in YAP localization, XYZ stacks of Hoechst-stained nuclei of iRFP YAP transfected MSCs were captured using confocal microscope (Leica TCS SP8, 63× objective) with a closed pinhole 0.5 AU and thin Z step size of 0.3 μm. All the XYZ stacks were analyzed using a custom MATLAB code that measures nuclear volumes, surface area, height, major axis, minor axis, and curvature. In brief, the three-dimensional XYZ stacks were, preprocessed by background subtraction threshold, and binarization. The nuclear volumes, surface area, height, major axis, and minor axis were first measured in pixels using regionprops3™ in MATLAB, which were then converted to microns. Nuclear flatness, Nuclear Eccentricity and Nuclear Aspect Ratio were measured using the following equations: […]
For nuclear curvature analysis, XYZ stacks of Hoechst-stained nuclei were resliced into 2D image sections in XY, XZ and YZ directions. For each resliced 2D nuclear image, curvature was measured across the nuclear boundary, using a curvature function in MATLAB. […] This provided us with distribution of curvature values of the complete nucleus quantified from resliced nuclear images in all three dimensions of XY, XZ and YZ separately (FIGS. 9A-9L). […]

[2] = tested on: MSCs transfected with Nesprin 2G tension sensor; assay: Nesprin 2G FRET tension sensor, nuclear membrane tension in MSCs; conditions: before versus after actin depolymerization
Description: To measure nuclear membrane tension, MSCs were co-transfected Nesprin tension sensor (pcdna nesprin TS, 68127, Addgene) and iRFP-YAP plasmid. Nesprin tension sensors are fluorescent resonance energy transfer-based tension biosensors for nesprin 2G, a structural protein at the LINC complex, which links actin cytoskeleton to the nucleus. For control experiments, MSCs were transfected with Nesprin headless control (pcdna nesprin HL, 68128, Addgene), which lacks the actin-binding domain and is localized on the nuclear membrane. […]
All the image processing and analysis was performed on open-source Image J software. […] Ratio images were calculated by dividing the unmixed venus channel by the unmixed teal channel. For each image, binary masks were manually created in ImageJ to exclude pixels outside of the nuclear membrane as determined by the mVenus channel. […] Local FRET intensity and local curvature were measured using Kappa Curvature Analysis plugin in Image J. In brief, the 2D FRET images were opened in Kappa Curvature Analysis plugin and using a selection tool, points were manually selected across the nuclear membrane and a closed curvature fit was performed. […]

MSCs [3] = assay: YAP localization in MSCs confined on fibronectin line patterns treated with modulators of nuclear import; conditions: for YAP Ratio with increasing Kmax XY: fibronectin line patterns 1.5-8 μm, Pitstop2 30 μM 1 hour; for nuclear YAP on thick (8 μm) and thin (1.5 μm) line patterns: microscopy, FIGS. 15B-15D
Experimental: Glass coverslips were adhesively micropatterned on 22*22 mm no. 1 with a UV-based patterning system (PRIMO, Alveole Lab, Paris, France). Glass coverslips were incubated with Poly-L-Lysine (PLL, Sigma) solution (5 mg/mL) prepared in 0.1 M HEPES buffer (pH 8.5) for 1 hour at room temperature, followed by rinsing with MiliQ™ water. Positively charged PLL electrostatically adsorbed onto the negatively charged surface of silicone substrates and allowed protein attachment after printing. The coverslips were then incubated with Polyethylene glycol valeric acid (PEG-SVA, Laysan Bio) prepared in 0.1 M HEPES buffer (pH 8.5) for 30 minutes at room temperature, followed by thorough rinsing with phosphate buffer saline (PBS) pH 7. PEG-SVA acts as an antifouling brush layer that repels protein attachment. The coverslips were then covered with the UV sensitive photo-initiator solution of PLPP (Alveole Lab, Paris, France) and placed on the stage of a microscope (Nikon Ti2 Eclipse) equipped with the UV-patterning system.
To generate the patterns, open-source graphics software programs were used, Inkscape and ImageJ, to generate binary 8-bit mask image files that were loaded into PRIMO's control software. The desired pattern was generated by a digital micromirror array in the PRIMO system and projected using a 375 nm UV laser with an intensity of 29 mW/mm^2 via 20×/0.45NA objective. The projected pattern results in localized photodegradation of the antifouling PEG-SVA brush, in the shape of the desired pattern. An exposure dose of 20 seconds was adequate to complete photodegradation of the PEG-SVA brush. Following UV exposure, the coverslips were washed with PBS and incubated them for 1 hr at room temperature with 40 μg/mL fibronectin (Sigma) in PBS to adsorb the protein to the exposed PLL surface. Excess protein was rinsed off with PBS 3 times prior to cell seeding.
as §1
To identify the mechanisms involved in YAP localization via nuclear curvature, MSCs were confined on fibronectin line patterns of decreasing thickness and then exposed to various drugs that manipulate active and passive nuclear import mechanisms. Finally, MSCs were fixed and stained with Anti-YAP1 antibody and Hoechst as explained above. To inhibit active nuclear import, MSCs were treated with 40 μM Importazole (cayman chemicals) for 1 hour, it inhibits importinβ/Ran GTP nuclear import pathway. For inhibiting both active and passive nuclear import, MSCs were treated with 30 μM Pitstop2 (abcam) for 1 hour, it disrupts nuclear pore complex structure and blocks nuclear pores. […]

[4] = 1.5 μM for 2 hours, fibronectin-coated glass coverslips
[5] = Importazole 40 μM 1 hour, trans-1,2-Cyclohexanediol 258 mM 5 mins

Row | SMILES | YAP Ratio (nuclear to cytoplasmic YAP, endogenous, anti-YAP antibody) (MSCs [1]; [4]) | nuclear volume (MSCs [1]; [4]) | YAP Ratio (nuclear to cytoplasmic YAP, endogenous, anti-YAP antibody) (MSCs [1]; 1.5 μM for 2 hours, fibronectin-coated glass coverslips, listed as Cyto D) | maximum nuclear curvature (Kmax XZ) / nuclear curvature distribution (MSCs [1]; Hoechst-stained nuclei, XYZ stacks, listed as Cyto D) | FRET intensity (increase = decrease in nuclear membrane tension) [2] | YAP Ratio with increasing Kmax XY (MSCs [3]; [5]) | YAP Ratio compared with untreated MSCs (MSCs [3]; fibronectin line patterns, Importazole 40 μM 1 hour, trans-1,2-Cyclohexanediol 258 mM 5 mins) | nuclear YAP on thick (8 μm) and thin (1.5 μm) line patterns (MSCs [3])
1 | C=C1[C@@H](C)[C@H]2[C@H](Cc3ccccc3)NC(=O)[C@]23[C@H](OC(C)=O)/C=C/[C@@](C)(O)C(=O)[C@@H](C)C/C=C/[C@H]3[C@@H]1O [Cytochalasin D] | low YAP ratio | high nuclear volumes | lower YAP Ratios | lower maximum curvature in XZ | increase in FRET intensity |  |  | 
2 | CC(Nc1nc(N2CCCC2)nc2ccccc12)c1ccccc1 (stereo not shown) [importazole, Importazole] |  |  |  |  |  | small increase in YAP ratios with increasing Kmax XY | substantially less than untreated MSCs | low nuclear YAP on both thick (8 μm) and thin line patterns (1.5 μm)
3 | O=C1NC(=NS(=O)(=O)c2cccc3ccccc23)S/C1=C\c1ccc(Br)cc1 [Pitstop2] |  |  |  |  |  | complete inhibition of curvature influenced YAP Ratio |  | low nuclear YAP on both thick (8 μm) and thin (1.5 μm) line patterns

Reference: patent US20240344029A1, “STEM CELL DIFFERENTIATION BY CONTROLLING NUCLEAR CURVATURE” (THE ROYAL INSTITUTION FOR THE ADVANCEMENT OF LEARNING / …, priority 2023, published 2024)
